Laboratory results as given in ChEMBL document CHEMBL1154254, “Antiproliferative triterpenoid saponins of Dodonaea viscosa from the Madagascar dry forest” (J Nat Prod, 2009).

Experiments:
Format in all cases: functional, cell-based
DU-145 = assay: Antiproliferative activity against human DU145 cells
NCI-H460 = assay: Antiproliferative activity against human NCI-H460 cells
HCC 2998 = assay: Antiproliferative activity against human HCC2998 cells
A2780 = assay: Antiproliferative activity against human A2780 cells after 2 days by alamar blue assay; conditions: A2780, 48 h
BT-549 = assay: Antiproliferative activity against human BT549 cells

SMILES | IC50 (DU-145) [nM] | IC50 (NCI-H460) [nM] | IC50 (HCC 2998) [nM] | IC50 (A2780) [nM] | IC50 (BT-549) [nM]
C/C=C(/C)C(=O)O[C@H]1[C@H](OC(=O)/C(C)=C\C)[C@]2(CO)[C@H](O)[C@H](O)[C@]3(C)C(=CC[C@@H]4[C@@]5(C)CC[C@H](O[C@@H]6O[C@H](C(=O)O)[C@@H](O)[C@H](O[C@@H]7O[C@@H](CO)[C@H](O)[C@H]7O)[C@H]6O[C@@H]6O[C@H](CO)[C@@H](O)[C@H](O)[C@H]6O)C(C)(C)[C@@H]5CC[C@]43C)[C@@H]2CC1(C)C [DODONAEASIDE A] | > 5000 | > 5000 | > 5000 | 790 | > 5000
C/C=C(/C)C(=O)O[C@H]1[C@H](OC(=O)[C@]2(C)O[C@@H]2C)C(C)(C)C[C@H]2C3=CC[C@@H]4[C@@]5(C)CC[C@H](O[C@@H]6O[C@H](C(=O)O)[C@@H](O)[C@H](O[C@@H]7O[C@@H](CO)[C@H](O)[C@H]7O)[C@H]6O[C@@H]6O[C@H](CO)[C@@H](O)[C@H](O)[C@H]6O)C(C)(C)[C@@H]5CC[C@@]4(C)[C@]3(C)C[C@@H](O)[C@]21CO [DODONAEASIDE B] | – | – | – | 700 | –
